Reference: a compilation of properties of binary mixtures (doi:10.1016/j.molliq.2014.09.055)

Experiment: xn = mol fraction of the nth substance listed
Settings: 101 kPa

CCOS(=O)(=O)[O-].CC[n+]1ccn(C)c1 + CCC(=O)O
speed of sound (293.15 K, x2 = 0): 1693.1 m/s | speed of sound (298.15 K, x2 = 0): 1680.8 m/s

CC(=O)O + CCOS(=O)(=O)[O-].CC[n+]1ccn(C)c1
speed of sound (293.15 K, x1 = 0.308): 1644.8 m/s | speed of sound (293.15 K, x1 = 0.4031): 1622.3 m/s | speed of sound (293.15 K, x1 = 0.4737): 1603.2 m/s | speed of sound (293.15 K, x1 = 0.5975): 1560.5 m/s | speed of sound (293.15 K, x1 = 0.701): 1510.8 m/s | speed of sound (293.15 K, x1 = 0.8973): 1339.1 m/s | speed of sound (293.15 K, x1 = 1): 1152.7 m/s | speed of sound (298.15 K, x1 = 0.1993): 1651.5 m/s | speed of sound (298.15 K, x1 = 0.308): 1632.2 m/s | speed of sound (298.15 K, x1 = 0.4737): 1590.2 m/s | speed of sound (298.15 K, x1 = 0.5975): 1547.1 m/s | speed of sound (298.15 K, x1 = 0.701): 1497 m/s | speed of sound (298.15 K, x1 = 0.8973): 1324 m/s | speed of sound (298.15 K, x1 = 0.9512): 1237.2 m/s | speed of sound (303.15 K, x1 = 0.0978): 1656.4 m/s | speed of sound (303.15 K, x1 = 0.1993): 1639 m/s | speed of sound (303.15 K, x1 = 0.308): 1619.5 m/s | speed of sound (303.15 K, x1 = 0.4031): 1596.6 m/s | speed of sound (303.15 K, x1 = 0.4737): 1577.1 m/s | speed of sound (303.15 K, x1 = 0.5975): 1533.6 m/s | speed of sound (303.15 K, x1 = 0.701): 1483.1 m/s | speed of sound (303.15 K, x1 = 0.9512): 1221 m/s | speed of sound (303.15 K, x1 = 1): 1118.4 m/s | speed of sound (308.15 K, x1 = 0.0978): 1644.2 m/s | speed of sound (308.15 K, x1 = 0.1993): 1626.6 m/s | speed of sound (308.15 K, x1 = 0.308): 1606.9 m/s | speed of sound (308.15 K, x1 = 0.4737): 1564 m/s | speed of sound (308.15 K, x1 = 0.5975): 1520.1 m/s | speed of sound (308.15 K, x1 = 0.701): 1469.2 m/s | speed of sound (308.15 K, x1 = 0.8057): 1394.1 m/s | speed of sound (308.15 K, x1 = 0.8973): 1293.3 m/s | speed of sound (308.15 K, x1 = 0.9512): 1204.9 m/s | speed of sound (308.15 K, x1 = 1): 1101.2 m/s | speed of sound (313.15 K, x1 = 0.1993): 1614.3 m/s | speed of sound (313.15 K, x1 = 0.308): 1594.4 m/s | speed of sound (313.15 K, x1 = 0.4737): 1551.1 m/s | speed of sound (313.15 K, x1 = 0.701): 1455.5 m/s | speed of sound (313.15 K, x1 = 0.8057): 1379.8 m/s | speed of sound (313.15 K, x1 = 0.8973): 1278 m/s | speed of sound (313.15 K, x1 = 0.9512): 1188.8 m/s | speed of sound (313.15 K, x1 = 1): 1084 m/s

CCOS(=O)(=O)[O-].CC[n+]1ccn(C)c1 + CC(=O)O
speed of sound (293.15 K, x2 = 0): 1693.1 m/s | speed of sound (298.15 K, x2 = 0): 1680.8 m/s | speed of sound (303.15 K, x2 = 0): 1668.5 m/s

CCC(=O)O + CCOS(=O)(=O)[O-].CC[n+]1ccn(C)c1
speed of sound (293.15 K, x1 = 0.1678): 1659.4 m/s | speed of sound (293.15 K, x1 = 0.2655): 1635.9 m/s | speed of sound (293.15 K, x1 = 0.3539): 1611.6 m/s | speed of sound (293.15 K, x1 = 0.4224): 1590.3 m/s | speed of sound (293.15 K, x1 = 0.5516): 1542.7 m/s | speed of sound (293.15 K, x1 = 0.6556): 1494.8 m/s | speed of sound (293.15 K, x1 = 0.7707): 1421.7 m/s | speed of sound (293.15 K, x1 = 0.8774): 1320.2 m/s | speed of sound (293.15 K, x1 = 0.9405): 1240.4 m/s | speed of sound (293.15 K, x1 = 1): 1164.7 m/s | speed of sound (298.15 K, x1 = 0.0818): 1665.8 m/s | speed of sound (298.15 K, x1 = 0.1678): 1647 m/s | speed of sound (298.15 K, x1 = 0.3539): 1598.8 m/s | speed of sound (298.15 K, x1 = 0.4224): 1577.4 m/s | speed of sound (298.15 K, x1 = 0.5516): 1529.4 m/s | speed of sound (298.15 K, x1 = 0.6556): 1481 m/s | speed of sound (298.15 K, x1 = 0.7707): 1407.2 m/s | speed of sound (298.15 K, x1 = 0.8774): 1304.5 m/s | speed of sound (298.15 K, x1 = 0.9405): 1223.4 m/s | speed of sound (298.15 K, x1 = 1): 1146 m/s | speed of sound (303.15 K, x1 = 0.0818): 1653.5 m/s | speed of sound (303.15 K, x1 = 0.1678): 1634.6 m/s | speed of sound (303.15 K, x1 = 0.2655): 1610.7 m/s | speed of sound (303.15 K, x1 = 0.3539): 1585.9 m/s | speed of sound (303.15 K, x1 = 0.4224): 1564.4 m/s | speed of sound (303.15 K, x1 = 0.5516): 1515.9 m/s | speed of sound (303.15 K, x1 = 0.6556): 1467 m/s | speed of sound (303.15 K, x1 = 0.7707): 1392.4 m/s | speed of sound (303.15 K, x1 = 0.8774): 1288.6 m/s | speed of sound (303.15 K, x1 = 0.9405): 1206.2 m/s | speed of sound (303.15 K, x1 = 1): 1127.1 m/s | speed of sound (308.15 K, x1 = 0.0818): 1641.2 m/s | speed of sound (308.15 K, x1 = 0.1678): 1622.2 m/s | speed of sound (308.15 K, x1 = 0.4224): 1551.4 m/s | speed of sound (308.15 K, x1 = 0.5516): 1502.5 m/s | speed of sound (308.15 K, x1 = 0.6556): 1453.1 m/s | speed of sound (308.15 K, x1 = 0.7707): 1377.8 m/s | speed of sound (308.15 K, x1 = 0.8774): 1272.8 m/s | speed of sound (308.15 K, x1 = 1): 1108.3 m/s | speed of sound (313.15 K, x1 = 0.0818): 1629.1 m/s | speed of sound (313.15 K, x1 = 0.1678): 1609.9 m/s | speed of sound (313.15 K, x1 = 0.2655): 1585.6 m/s | speed of sound (313.15 K, x1 = 0.3539): 1566 m/s | speed of sound (313.15 K, x1 = 0.4224): 1538.5 m/s | speed of sound (313.15 K, x1 = 0.5516): 1489.2 m/s | speed of sound (313.15 K, x1 = 0.6556): 1439.4 m/s | speed of sound (313.15 K, x1 = 0.7707): 1363.3 m/s | speed of sound (313.15 K, x1 = 0.9405): 1172.3 m/s | speed of sound (313.15 K, x1 = 1): 1089.6 m/s
